Patent US7238813B2, “Chemical compounds” (Smithkline Beecham Corporation, priority 2000, dated 2007)

What was measured:
Recombinant GST-Tie2 = Recombinant GST-Tie2 (Homo sapiens, UniProt Q02763); assay: Tie2 fluorescence polarization kinase activity assay (TIE2-FP); type: biochemical; details: starred examples, 200 μM ATP, read-out: TIE2-E (Tie-2 activities run utilizing Tie2-FP assay)
Description: Tie2 Fluorescence Polarization Kinase Activity Assay: (TIE2-FP)
Activation of Recombinant Tie2 Activation:
Recombinant GST-Tie2 was activated by incubating the enzyme in 20 mM Tris-HCl, pH 7.5, 12 mM MgCl2, 100 mM NaCl, 20 μM sodium vanidate, 1 mM DTT and 300 μM ATP at room temperature for 2 hours. The activation mixture was then passed through a NAP-25 desalting column (Pharmacia Biotech cat. no. 17-0852-02) to remove the free ATP. The activated enzyme was stored as aliquots at −80° C. in 20 mM Tris-HCl, pH 7.5 and 100 mM NaCl.
The final assay conditions were 50 mM HEPES, pH 7.5, 5% DMSO (when screening compounds), 200 μM ATP, 5 mM MgCl2, 1 mM DTT, 50 μM sodium vanidate, 1 nM activated enzyme, and 200 μM peptide. IC50's of compounds were measured under subsaturating ATP (200 μM) and varing concentrations of activated Tie2 and peptide substrate ([…]-OH; MW 1873 Da, TFA salt). Panvera Antiphosphotyrosine antibody (Cat#P2840) and PTK Green Tracer (Cat#P2842) were used to detect the phosphorylated peptide. Polarization was measured on a TECAN Polarion in 138-second cycles for 30 minutes at room temperature. IC50's were then determined from the % polarization using normal calculation methods.

GST-VEGFR2 = molecular target: T1, GST-VEGFR2 (Homo sapiens, UniProt P35968); assay: VEGF-R2 enzyme assay (VEGF-E), LANCE method; type: biochemical; details: 75 μM ATP
T1 construct: GST-VEGFR2, baculovirus expressed recombinant constructs of the intracellular domains of human TIE2 tagged by GST; made in house
T1 sequence (P35968 786-1356 limits assumed): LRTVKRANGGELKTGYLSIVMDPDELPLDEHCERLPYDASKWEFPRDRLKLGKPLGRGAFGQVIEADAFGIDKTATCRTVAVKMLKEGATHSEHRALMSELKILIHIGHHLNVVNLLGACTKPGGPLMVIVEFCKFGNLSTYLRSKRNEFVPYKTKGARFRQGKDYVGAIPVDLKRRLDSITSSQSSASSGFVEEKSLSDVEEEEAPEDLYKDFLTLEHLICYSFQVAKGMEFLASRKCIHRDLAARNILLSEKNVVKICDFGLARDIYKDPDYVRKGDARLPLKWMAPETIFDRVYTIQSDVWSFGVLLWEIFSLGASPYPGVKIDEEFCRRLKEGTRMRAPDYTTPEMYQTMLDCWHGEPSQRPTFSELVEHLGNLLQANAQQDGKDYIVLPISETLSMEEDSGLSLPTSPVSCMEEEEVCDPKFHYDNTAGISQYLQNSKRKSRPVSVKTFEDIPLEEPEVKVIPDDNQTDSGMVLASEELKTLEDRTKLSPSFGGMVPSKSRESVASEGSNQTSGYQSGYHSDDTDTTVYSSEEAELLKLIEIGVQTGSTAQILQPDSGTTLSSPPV

[1] = molecular target: T2, TIE2 intracellular domain/c-fms extracellular domain (TIE2/c-fms) chimeric protein expressing mouse 3T3 cells (Homo sapiens, UniProt Q02763); assay: TIE-2 autophosphorylation assay (TIE2-C), ELISA; type: cell-based; details: TIE2/c-fms 3T3 cells, MCSF activation
T2 construct: a TIE2 intracellular domain/c-fms extracellular domain (TIE2/c-fms) chimeric protein; expressed in transfected cells; host or cells: mouse 3T3 cells
T2 sequence (Q02763 770-1124 limits assumed, change not shown): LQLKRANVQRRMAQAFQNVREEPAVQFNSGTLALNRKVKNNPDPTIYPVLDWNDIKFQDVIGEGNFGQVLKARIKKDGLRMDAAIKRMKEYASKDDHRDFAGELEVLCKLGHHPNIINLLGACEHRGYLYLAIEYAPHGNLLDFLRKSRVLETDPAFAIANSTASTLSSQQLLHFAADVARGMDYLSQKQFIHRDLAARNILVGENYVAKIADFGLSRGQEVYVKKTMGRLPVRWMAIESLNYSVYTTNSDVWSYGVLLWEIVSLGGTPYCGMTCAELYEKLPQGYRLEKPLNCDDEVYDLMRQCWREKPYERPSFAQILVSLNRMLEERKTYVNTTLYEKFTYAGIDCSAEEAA
Procedure, shortened: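 Mouse 3T3 cells expressing TIE2 intracellular/c-fms extracellular chimera treated with compound for 1 hr in serum-free DMEM (0.1% DMSO), then stimulated with MCSF. Lysates captured on anti-c-fms plates overnight at 4 °C; phosphotyrosine detected by biotin-PT66/HRP-streptavidin, OD450. IC50 by nonlinear regression, reported as pIC50.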

[2] = molecular target: T3, GST-TIE2 (intracellular domains of human TIE2) (Homo sapiens, UniProt Q02763); assay: TIE-2 enzyme assay (TIE2-E), LANCE method; type: biochemical; details: 80 uM ATP
T3 construct: made in house
T3 sequence (Q02763 762-1104): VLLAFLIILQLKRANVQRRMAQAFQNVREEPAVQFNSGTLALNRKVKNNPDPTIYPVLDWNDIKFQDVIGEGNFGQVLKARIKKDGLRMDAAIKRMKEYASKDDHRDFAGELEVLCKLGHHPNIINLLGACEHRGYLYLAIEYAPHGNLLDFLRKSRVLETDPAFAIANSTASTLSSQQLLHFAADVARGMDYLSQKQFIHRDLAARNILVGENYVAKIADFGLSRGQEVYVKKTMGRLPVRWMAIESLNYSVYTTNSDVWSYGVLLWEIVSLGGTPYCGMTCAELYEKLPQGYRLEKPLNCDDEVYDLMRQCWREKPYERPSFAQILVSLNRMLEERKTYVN
Procedure, shortened: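 Baculovirus GST-TIE2 (human intracellular domain, aa 762–1104) preactivated 30 min at RT with 2 mM ATP, then reacted 30 min at RT with 1 μM D1-15 peptide, 80 uM ATP, 10 mM MgCl2, pH 7.4, 2.4% DMSO. EDTA-stopped; LANCE Eu-anti-pTyr/streptavidin-APC read-out. IC50 by nonlinear regression, reported as pIC50.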

[3] = test system: Human umbilical cord endothelial cells (HUVEC); assay: VEGF-driven cellular proliferation assay: BrdU incorporation assay (VEGF-C); type: cell-based; parameters: key to VEGF-C: + = pIC50 of 5.0–6.0; ++ = pIC50 of 6.0–7.0; +++ = pIC50 of > 7.0; − = a negative or inconclusive result
Procedure, shortened: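 HUVEC (≤6 passages) were plated at 5000 cells/well and exposed to compound 30 min in serum-free M199 containing 0.6% DMSO. Medium with 20 ng/ml VEGF was then added for 24 h, followed by a 24 h pulse with 10 μM BrdU and ELISA read at 450 nm. IC50 from nonlinear regression of percent inhibition was expressed as pIC50.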

Chain of Recombinant GST-Tie2 (Q02763 23-1124): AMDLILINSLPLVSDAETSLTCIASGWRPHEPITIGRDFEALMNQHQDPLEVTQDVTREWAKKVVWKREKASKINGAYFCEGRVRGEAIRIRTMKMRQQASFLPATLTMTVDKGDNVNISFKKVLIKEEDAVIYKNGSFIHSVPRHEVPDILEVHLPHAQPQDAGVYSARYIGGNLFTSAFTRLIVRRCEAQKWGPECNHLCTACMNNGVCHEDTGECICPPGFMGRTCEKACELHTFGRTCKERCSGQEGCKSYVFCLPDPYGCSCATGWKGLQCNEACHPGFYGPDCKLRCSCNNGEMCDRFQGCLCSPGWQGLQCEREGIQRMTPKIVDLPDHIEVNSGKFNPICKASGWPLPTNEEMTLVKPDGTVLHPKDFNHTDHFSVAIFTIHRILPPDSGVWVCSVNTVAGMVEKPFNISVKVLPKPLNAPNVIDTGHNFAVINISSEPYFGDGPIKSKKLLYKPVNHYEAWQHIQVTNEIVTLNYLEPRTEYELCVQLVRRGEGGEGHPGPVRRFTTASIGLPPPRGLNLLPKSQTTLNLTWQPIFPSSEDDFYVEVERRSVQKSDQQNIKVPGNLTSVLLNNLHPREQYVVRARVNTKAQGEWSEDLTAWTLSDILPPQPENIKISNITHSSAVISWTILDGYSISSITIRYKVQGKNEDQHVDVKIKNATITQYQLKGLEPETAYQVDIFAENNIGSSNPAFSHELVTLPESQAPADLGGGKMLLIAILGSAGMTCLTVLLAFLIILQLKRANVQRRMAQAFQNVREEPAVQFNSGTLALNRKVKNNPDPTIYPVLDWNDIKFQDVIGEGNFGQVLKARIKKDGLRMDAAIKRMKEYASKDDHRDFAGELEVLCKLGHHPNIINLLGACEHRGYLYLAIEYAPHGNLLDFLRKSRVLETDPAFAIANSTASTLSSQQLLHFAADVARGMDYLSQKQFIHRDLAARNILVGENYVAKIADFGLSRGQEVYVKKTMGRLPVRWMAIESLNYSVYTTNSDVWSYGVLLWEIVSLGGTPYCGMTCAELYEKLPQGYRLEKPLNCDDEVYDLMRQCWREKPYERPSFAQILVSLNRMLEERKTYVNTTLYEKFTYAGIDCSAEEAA

IC50 (Recombinant GST-Tie2) [nM]	IC50 (GST-VEGFR2) [nM]	IC50 [1] [nM]	IC50 [2] [nM]	Structure (SMILES)	IC50 ([3]; Homo sapiens) [nM]	VEGF-C [3]
< 100	< 100			COCCOCC(=O)Nc1nc2cc(Oc3ccc(NC(=O)Nc4nnc(C(C)(C)C)s4)cc3)ccc2[nH]1 [Example 159, N-(5-(4-((5-tert-Butyl-1,3,4-thiadiazol-2-yl)aminocarbonylamino)phenoxy)-1H-benzimidazol-2-yl)(2-(methoxy)ethoxy)acetamide]		
100 to 1000	< 100			COCCOCC(=O)Nc1nc2cc(Oc3ccc(NC(=O)Nc4nc(C(C)(C)C)cs4)cc3)ccc2[nH]1 [Example 158, N-(5-(4-((4-tert-Butylthiazol-2-yl)aminocarbonylamino)phenoxy)-1H-benzimidazol-2-yl)(2-(methoxy)ethoxy)acetamide]		
1000 to 10000	100 to 1000			COCCOCC(=O)Nc1nc2cc(Oc3ccc(NC(=O)Nc4nnc(C)s4)cc3)ccc2[nH]1 [Example 155, N-(5-(4-((5-Methyl-1,3,4-thiadiazol-2-yl)aminocarbonylamino)phenoxy)-1H-benzimidazol-2-yl)(2-(methoxy)ethoxy)acetamide]		
1000 to 10000	100 to 1000			COCCOCC(=O)Nc1nc2cc(Oc3ccc(NC(=O)Nc4nc(C)cs4)cc3)ccc2[nH]1 [Example 153, N-(5-(4-((4-Methylthiazol-2-yl)aminocarbonylamino)phenoxy)-1H-benzimidazol-2-yl)(2-(methoxy)ethoxy)acetamide]		
100 to 1000	< 100			CCc1nnc(NC(=O)Nc2ccc(Oc3ccc4[nH]c(NC(=O)COCCOC)nc4c3)cc2)s1 [Example 156, N-(5-(4-((5-Ethyl-1,3,4-thiadiazol-2-yl)aminocarbonylamino)phenoxy)-1H-benzimidazol-2-yl)(2-(methoxy)ethoxy)acetamide]		

The remaining lines, values behind:

Structure (SMILES)	IC50 (Recombinant GST-Tie2) [nM]	IC50 (GST-VEGFR2) [nM]	IC50 [1] [nM]	IC50 [2] [nM]	IC50 ([3]; Homo sapiens) [nM]	VEGF-C [3]
CC(=O)Nc1nc2cc(Oc3ccc(NC(=O)Nc4nc(C(C)(C)C)cs4)cc3)ccc2[nH]1 [Example 146, N-(5-(4-((4-tert-Butylthiazol-2-yl)aminocarbonylamino)phenoxy)-1H-benzimidazol-2-yl)acetamide]	100 to 1000	< 100				
COCCOCC(=O)Nc1nc2cc(Oc3ccc(NC(=O)Nc4nncs4)cc3)ccc2[nH]1 [Example 152, N-(5-(4-((1,3,4-Thiadiazol-2-yl)aminocarbonylamino)phenoxy)-1H-benzimidazol-2-yl)(2-(methoxy)ethoxy)acetamide]	1000 to 10000	1000 to 10000				
COCCOCC(=O)Nc1nc2cc(Oc3ccc(NC(=O)Nc4nccs4)cc3)ccc2[nH]1 [Example 151, N-(5-(4-((Thiazol-2-yl)aminocarbonylamino)phenoxy)-1H-benzimidazol-2-yl)(2-(methoxy)ethoxy)acetamide]	1000 to 10000	100 to 1000				
O=C(Nc1ccc(Oc2ccc3[nH]c(NC(=O)C4CCCC4)nc3c2)cc1)Nc1cc(C(F)(F)F)ccc1F [Example 26, N-(5-(4-((2-Fluoro-5-(trifluoromethyl)phenyl)aminocarbonylamino)phenoxy)-1H-benzimidazol-2-yl)cyclopentamide]		< 100	100 to 1000	< 100	100 to 1000	
COC(=O)Nc1nc2cc(Oc3ccc(NC(=O)Nc4cc(Cl)ccc4Cl)cc3)ccc2[nH]1 [Example 45, Methyl N-(5-(4-((2,5-dichlorophenyl)aminocarbonylamino)phenoxy)-1H-benzimidazol-2-yl)carbamate]		< 100	< 100	< 100		−
